Experimental data published in patent US5466671A, “Apidaecin-type peptide antibiotics with improved activities and/or different antibacterial spectrum” (priority 1994, dated 1995).
Residues, ends and D or L forms follow the SMILES beside them.

Columns and labels:
gram negative bacteria = settings: many gram negative bacteria; cited from earlier work
gram positives = settings: cited from earlier work
[1] = system: Escherichia coli (ATCC11775); test: Inhibition zone assay (agar plate); format: cell-based; settings: for inhibition zone diameter (number of plus signs): agar plate, 50 nanomoles/well, 3 mm wells
[2] = system: Escherichia coli (11775 Apid R); format: cell-based; settings: agar plate, 50 nanomoles/well, 3 mm wells
Enterobacter cloacae = test: Inhibition zone assay (agar plate); format: cell-based; settings: for inhibition zone diameter (number of plus signs): agar plate, 50 nanomoles/well, 3 mm wells
Erwinia amylovora = test: Inhibition zone assay (agar plate); format: cell-based; settings: for inhibition zone diameter (number of plus signs): agar plate, 50 nanomoles/well, 3 mm wells
Klebsiella pneumoniae = test: Inhibition zone assay (agar plate); format: cell-based; settings: for inhibition zone diameter (number of plus signs): agar plate, 50 nanomoles/well, 3 mm wells
Morganella morganii = test: Inhibition zone assay (agar plate); format: cell-based; settings: 50 nanomoles/well, 3 mm wells
Salmonella typhimurium = test: Inhibition zone assay (agar plate); format: cell-based; settings: for inhibition zone diameter (number of plus signs): agar plate, 50 nanomoles/well, 3 mm wells
Salmonella typhi = format: cell-based; settings: for inhibition zone diameter (number of plus signs): agar plate, 50 nanomoles/well, 3 mm wells
Yersinia enterocolitica = test: Inhibition zone assay (agar plate); format: cell-based; settings: 50 nanomoles/well, 3 mm wells
[3] = system: Acinetobacter calcoaceticus; test: Inhibition zone assay (agar plate); format: cell-based; settings: for inhibition zone diameter (number of plus signs): agar plate, 50 nanomoles/well, 3 mm wells
[4] = system: Agrobacterium tumefaciens; test: Inhibition zone assay (agar plate); format: cell-based; settings: for inhibition zone diameter (number of plus signs): agar plate, 50 nanomoles/well, 3 mm wells
Francisella tularensis = format: cell-based; settings: agar plate, 50 nanomoles/well, 3 mm wells
Pseudomonas syringae = test: Inhibition zone assay (agar plate); format: cell-based; settings: agar plate, 50 nanomoles/well, 3 mm wells
Rhizobium meliloti = test: Inhibition zone assay (agar plate); format: cell-based; settings: 50 nanomoles/well, 3 mm wells
Haemophilus influenzae = test: Inhibition zone assay (agar plate); format: cell-based; settings: 50 nanomoles/well, 3 mm wells
E. coli Apid^R = test: Minimal inhibitory concentration (liquid culture); format: cell-based; settings: inoculum 1000 CFU/ml; a-b = highest concentration with growth - lowest without growth
From the text: For details see `Experimental Procedures`.

E. coli 11775 = test: Minimal inhibitory concentration (liquid culture); settings: a-b = highest concentration with growth - lowest without growth
E. coli 23802 = test: Minimal inhibitory concentration (liquid culture); settings: inoculum 5000 CFU/ml; a-b = highest concentration with growth - lowest without growth
E. coli 25922 = test: Minimal inhibitory concentration (liquid culture); settings: inoculum 1100 CFU/ml; a-b = highest concentration with growth - lowest without growth
S. typhimurium = test: Minimal inhibitory concentration (liquid culture); settings: inoculum 8 × 10^6 CFU/ml; a-b = highest concentration with growth - lowest without growth
A. calcoaceticus = test: Minimal inhibitory concentration (liquid culture); settings: inoculum 16 × 10^6 CFU/ml; a-b = highest concentration with growth - lowest without growth
M. morganii = test: Minimal inhibitory concentration (liquid culture); settings: inoculum 400 CFU/ml; a-b = highest concentration with growth - lowest without growth
Y. enterocolitica = test: Minimal inhibitory concentration (liquid culture); settings: inoculum 5000 CFU/ml; a-b = highest concentration with growth - lowest without growth
Escherichia coli (K514) = format: cell-based; settings: agar plate, 50 nanomoles/well, 3 mm wells
Shigella dysenteriae = format: cell-based
Campylobacter jejuni = test: Inhibition zone assay (agar plate); format: cell-based; settings: 50 nanomoles/well, 3 mm wells
Legionella pneumophila = format: cell-based; settings: agar plate, 50 nanomoles/well, 3 mm wells
strains tested = format: cell-based; settings: agar plate
E. coli D22 = format: cell-based; settings: 50 nanomoles per well (3 mm diameter)
[5] = 50 nanomoles per well (3 mm diameter)

| SMILES | inhibition zone diameter (number of plus signs) [1] | inhibition zone diameter (number of plus signs) [2] | inhibition zone diameter (number of plus signs) (Enterobacter cloacae) | inhibition zone diameter (number of plus signs) (Erwinia amylovora) | inhibition zone diameter (number of plus signs) (Klebsiella pneumoniae) | inhibition zone diameter (number of plus signs) (Morganella morganii) | inhibition zone diameter (number of plus signs) (Salmonella typhimurium) | inhibition zone diameter (number of plus signs) (Salmonella typhi) | inhibition zone diameter (number of plus signs) [3] | inhibition zone diameter (number of plus signs) [4] | inhibition zone diameter (number of plus signs) (Pseudomonas syringae) | inhibition zone diameter (number of plus signs) (Rhizobium meliloti) | inhibition zone diameter (number of plus signs) (Haemophilus influenzae) | minimal inhibitory concentration (MIC) (E. coli Apid^R) [µg/mL] | minimal inhibitory concentration (MIC) (E. coli 11775; inoculum 16 × 10^6 CFU/ml) [µg/mL] | minimal inhibitory concentration (MIC) (E. coli 11775; inoculum 1200 CFU/ml) [µg/mL] | minimal inhibitory concentration (MIC) (E. coli 23802) [µg/mL] | minimal inhibitory concentration (MIC) (E. coli 25922) [µg/mL] | minimal inhibitory concentration (MIC) (S. typhimurium) [µg/mL] | antibacterial activity, overall (inhibition zone) (strains tested) | other results |
| --- | --- | --- | --- | --- | --- | --- | --- | --- | --- | --- | --- | --- | --- | --- | --- | --- | --- | --- | --- | --- | --- |
| CC[C@H](C)[C@H](NC(=O)[C@H](Cc1ccc(O)cc1)NC(=O)[C@@H](NC(=O)[C@@H]1CCCN1C(=O)[C@H](CCCNC(=N)N)NC(=O)[C@H](CC(N)=O)NC(=O)[C@H](CC(N)=O)NC(=O)CN)C(C)C)C(=O)N1CCC[C@H]1C(=O)N[C@@H](CCC(N)=O)C(=O)N1CCC[C@H]1C(=O)N[C@@H](CCCNC(=N)N)C(=O)N1CCC[C@H]1C(=O)N1CCC[C@H]1C(=O)N[C@@H](Cc1cnc[nH]1)C(=O)N1CCC[C@H]1C(=O)N[C@@H](CCCNC(=N)N)C(=O)N[C@@H](CC(C)C)C(=O)O [Apidaecin] (H-GNNRPVYIPQPRPPHPRL-OH) |  |  |  |  |  |  |  |  |  |  |  |  |  |  |  |  |  |  |  |  | dose inhibiting viability (gram negative bacteria): nanomolar doses; effect on gram positives (gram positives): unaffected |
| CC[C@H](C)[C@H](NC(=O)[C@@H]1CCCN1C(=O)[C@H](C)NC(=O)[C@@H]1CCCN1C(=O)[C@H](CCCNC(=N)N)NC(=O)[C@@H]1CCCN1C(=O)[C@H](CCCNC(=N)N)NC(=O)[C@@H](N)CC(N)=O)C(=O)N[C@@H](CCC(N)=O)C(=O)N1CCC[C@H]1C(=O)N[C@@H](CCCNC(=N)N)C(=O)N1CCC[C@H]1C(=O)N1CCC[C@H]1C(=O)N[C@@H](Cc1c[nH]cn1)C(=O)N1CCC[C@H]1C(=O)N[C@@H](CCCNC(=N)N)C(=O)N[C@@H](CC(C)C)C(=O)O [Cd 1-, Asn--Arg--Pro--Arg--Pro--Ala--Pro--Ile--Gln--Pro--Arg--Pro--Pro--His--Pro--Arg--Leu] (H-NRPRPAPIQPRPPHPRL-OH) | +++ ((+++) 10-14 mm) | ++ ((++) 7-9 mm) | +++ ((+++) 10-14 mm) | ++++ ((++++) 15-19 mm) | ++ ((++) 7-9 mm) | ++ ((++) 7-9 mm) | +++ ((+++) 10-14 mm) | ++ ((++) 7-9 mm) | ++ ((++) 7-9 mm) | +++ ((+++) 10-14 mm) | ++++ ((++++) 15-19 mm) | ++++ ((++++) 15-19 mm) | +++ ((+++) 10-14 mm) | > 40 | 0.5 to 1 | 0.5 to 1 | 5 to 10 | 0.5 to 1 | 0.5 to 1 |  | inhibition zone diameter (number of plus signs) (Yersinia enterocolitica): ++ ((++) 7-9 mm); inhibition zone diameter (number of plus signs) (Francisella tularensis): ++ ((++) 7-9 mm); minimal inhibitory concentration (MIC) (A. calcoaceticus): > 20 µg/mL; minimal inhibitory concentration (MIC) (M. morganii): 20 to 40 µg/mL; minimal inhibitory concentration (MIC) (Y. enterocolitica): 5 to 10 µg/mL |
| CC[C@H](C)[C@H](NC(=O)[C@@H]1CCCN1C(=O)[C@H](C)NC(=O)[C@@H]1CCCN1C(=O)[C@H](CCCNC(=N)N)NC(=O)[C@@H]1CCCN1C(=O)[C@H](CCCCN)NC(=O)[C@@H](N)CC(N)=O)C(=O)N[C@@H](CCCCN)C(=O)N1CCC[C@H]1C(=O)N[C@@H](CCCNC(=N)N)C(=O)N1CCC[C@H]1C(=O)N1CCC[C@H]1C(=O)N[C@@H](Cc1c[nH]cn1)C(=O)N1CCC[C@H]1C(=O)N[C@@H](CCCNC(=N)N)C(=O)N[C@@H](CC(C)C)C(=O)O [Cd 2-, Asn--Lys--Pro--Arg--Pro--Ala--Pro--Ile--Lys--Pro--Arg--Pro--Pro--His--Pro--Arg--Leu] (H-NKPRPAPIKPRPPHPRL-OH) | +++ ((+++) 10-14 mm) | ++ ((++) 7-9 mm) | +++ ((+++) 10-14 mm) | +++ ((+++) 10-14 mm) | ++ ((++) 7-9 mm) | ++ ((++) 7-9 mm) | + ((+) 5-6 mm) | + ((+) 5-6 mm) | + ((+) 5-6 mm) | ++++ ((++++) 15-19 mm) | +++ ((+++) 10-14 mm) | +++ ((+++) 10-14 mm) | ++ ((++) 7-9 mm) | 5 to 10 | 0.5 to 1 | 0.5 to 1 | 10 to 20 | 0.5 to 1 | 1 to 5 |  | inhibition zone diameter (number of plus signs) (Escherichia coli (K514)): ++ ((++) 7-9 mm); inhibition zone diameter (number of plus signs) (Shigella dysenteriae; agar plate, 50 nanomoles/well, 3 mm wells): ++ ((++) 7-9 mm); inhibition zone diameter (number of plus signs) (Campylobacter jejuni): +++ ((+++) 10-14 mm); inhibition zone diameter (number of plus signs) (Legionella pneumophila): ++ ((++) 7-9 mm); minimal inhibitory concentration (MIC) (A. calcoaceticus): 10 to 20 µg/mL; minimal inhibitory concentration (MIC) (M. morganii): 1 to 5 µg/mL; minimal inhibitory concentration (MIC) (Y. enterocolitica): > 40 µg/mL |
| CC(C)C[C@H](NC(=O)[C@H](CCCNC(=N)N)NC(=O)[C@@H]1CCCN1C(=O)[C@H](Cc1c[nH]cn1)NC(=O)[C@@H]1CCCN1C(=O)[C@@H](NC(=O)[C@H](CCCNC(=N)N)NC(=O)[C@@H]1CCCN1C(=O)[C@@H]1CCCN1C(=O)[C@@H](NC(=O)[C@H](CCC(N)=O)NC(=O)[C@H](CCC(N)=O)NC(=O)[C@@H]1CCCN1C(=O)[C@H](CCCNC(=N)N)NC(=O)[C@@H]1CCCN1C(=O)[C@H](CCCCN)NC(=O)[C@@H](N)Cc1ccccc1)C(C)C)[C@@H](C)O)C(=O)O [HoFT, F K P R P Q Q V P P R T P H P R L] (H-FKPRPQQVPPRTPHPRL-OH) |  |  |  |  |  |  |  |  |  |  |  |  |  |  |  |  |  |  |  | lack detectable antibacterial activity |  |
| CC(C)C[C@H](NC(=O)[C@H](CCCNC(=N)N)NC(=O)[C@@H]1CCCN1C(=O)[C@H](Cc1c[nH]cn1)NC(=O)[C@@H]1CCCN1C(=O)[C@@H](NC(=O)[C@H](CCCNC(=N)N)NC(=O)[C@@H]1CCCN1C(=O)[C@@H]1CCCN1C(=O)[C@@H](NC(=O)[C@H](CCC(N)=O)NC(=O)[C@H](CCC(N)=O)NC(=O)[C@@H]1CCCN1C(=O)[C@H](CCCNC(=N)N)NC(=O)[C@@H]1CCCN1C(=O)[C@H](CCCCN)NC(=O)CN)C(C)C)[C@@H](C)O)C(=O)O [HoGT, G K P R P Q Q V P P R T P H P R L] (H-GKPRPQQVPPRTPHPRL-OH) |  |  |  |  |  |  |  |  |  |  |  |  |  |  |  |  |  |  |  | lack detectable antibacterial activity |  |
| CC[C@H](C)[C@H](NC(=O)[C@@H]1CCCN1C(=O)[C@@H](NC(=O)[C@H](CCC(N)=O)NC(=O)[C@@H]1CCCN1C(=O)[C@H](CO)NC(=O)[C@@H]1CCCN1C(=O)[C@H](CCCNC(=N)N)NC(=O)[C@@H](N)CO)C(C)C)C(=O)N[C@@H](CCCNC(=N)N)C(=O)N1CCC[C@H]1C(=O)N[C@@H](CO)C(=O)N[C@@H](CCC(N)=O)C(=O)N1CCC[C@H]1C(=O)N[C@@H](CCCNC(=N)N)C(=O)N1CCC[C@H]1C(=O)N[C@@H](CCC(N)=O)C(=O)N1CCC[C@H]1C(=O)N[C@@H](Cc1ccccc1)C(=O)N[C@@H](CCCCN)C(=O)N1CCC[C@H]1C(=O)N[C@@H](CCCNC(=N)N)C(=O)N1CCC[C@H]1C(=O)N[C@@H](CCC(N)=O)C(=O)N[C@@H](CCC(N)=O)C(=O)N[C@H](C(=O)N1CCC[C@H]1C(=O)N1CCC[C@H]1C(=O)N[C@@H](CCCNC(=N)N)C(=O)N[C@H](C(=O)N1CCC[C@H]1C(=O)N[C@@H](Cc1c[nH]cn1)C(=O)N1CCC[C@H]1C(=O)N[C@@H](CCCNC(=N)N)C(=O)N[C@@H](CC(C)C)C(=O)O)[C@@H](C)O)C(C)C [PAB-FT 1-35, SRPSPQVPIRPSQPRPQPFKPRPQQVPPRTPHPRL] (H-SRPSPQVPIRPSQPRPQPFKPRPQQVPPRTPHPRL-OH) |  |  |  |  |  |  |  |  |  |  |  |  |  |  |  |  |  |  |  | has antibacterial activity | Inhibition zones: in mm diameter [1, 5]: 10 mm; Inhibition zones: in mm diameter (Enterobacter cloacae; [5]): 11 mm; Inhibition zones: in mm diameter (Erwinia amylovora; [5]): 5 mm; Inhibition zones: in mm diameter (Klebsiella pneumoniae; [5]): 9 mm; Inhibition zones: in mm diameter (Salmonella typhimurium; [5]): 7 mm; Inhibition zones: in mm diameter (Salmonella typhi; [5]): 14 mm; Inhibition zones: in mm diameter (Shigella dysenteriae; [5]): 12 mm; Inhibition zones: in mm diameter [3, 5]: 7 mm; Inhibition zones: in mm diameter [4, 5]: 5 mm; Inhibition zones: in mm diameter (E. coli D22): 14 mm |
